Square brackets hold non-standard residues; d marks the D form. Peptide text beside a SMILES is read from it. * marks the point of attachment. X11 = NCCCC[C@H](NC(=O)C*)C(=O)NCCCC[C@H](N)C(=O)NCC(=O)N[C@@H](CS)C(N)=O; X13 = CC(=O)NCSC[C@H](NC(=O)CNC(=O)[C@H](CSCNC(C)=O)NC(=O)C*)C(N)=O; X7 = NC(=O)[C@H](CS)NC(=O)CNC(=O)[C@@H](N)CCCCNC(=O)C*; X5 = O=C(CNC(=O)[C@H](CS)NC(=O)C*)N[C@@H](CS)C(=O)O; X6 = NC(=O)[C@H](CS)NC(=O)CNC(=O)[C@H](CS)NC(=O)C*; X12 = NC(=O)[C@H](CS)NC(=O)CNC(=O)CNC(=O)C*; NMeF = CN[C@@H](Cc1ccccc1)C(=O)O; hCys = N[C@@H](CCS)C(=O)O
These compounds were tested against T1, somatostatin receptor (Rattus norvegicus, UniProt P30680) (assay: Inhibition of binding of (125I-Tyr11)somatostatin-14 to AR42J rat pancreatic tumor cell membranes). Details: 0.5 nM (125I-Tyr11)somatostatin-14, 25 min at 30° C., read-out: K1 (inhibition constant).
T1 construct: endogenous in cells; host or cells: AR42J rat pancreatic tumor cell line (membrane preparation)
T1 sequence (P30680 whole entry): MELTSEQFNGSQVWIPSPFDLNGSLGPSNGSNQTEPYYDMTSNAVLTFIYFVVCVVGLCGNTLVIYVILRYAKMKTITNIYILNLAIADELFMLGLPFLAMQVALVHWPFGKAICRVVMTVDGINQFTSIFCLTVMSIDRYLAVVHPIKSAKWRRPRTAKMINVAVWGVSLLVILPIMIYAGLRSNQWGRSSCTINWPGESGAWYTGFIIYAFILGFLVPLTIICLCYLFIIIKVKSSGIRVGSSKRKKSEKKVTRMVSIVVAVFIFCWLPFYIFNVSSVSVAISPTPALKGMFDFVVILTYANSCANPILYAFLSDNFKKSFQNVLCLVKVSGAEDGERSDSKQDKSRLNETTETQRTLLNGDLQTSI
Procedure: Inhibition of Binding of (^125 I-Tyr^11)somatostatin-14 to AR42J Rat Pancreatic Tumor Cell Membranes
The rat pancreatic tumor cell line AR42J which expresses the somatostatin receptor was cultured in Dulbecco's minimal essential media (DMEM) supplemented with 10% fetal bovine serum (FBS) and 8 mM glutamine in a humidified 5% CO2 atmosphere at 37° C. in T-flasks. Harvested cells were homogenized in cold 50 mM Tris-HCl buffer (pH 7.4) and the homogenate then centrifuged at 39,000 g for 10 min at 4° C. Pellets were washed once with buffer and then resuspended in an ice-cold solution of 10 mM Tris-HCl (pH 7.4). Equal aliquots of this cell membrane preparation were incubated with (^125 I-Tyr^11)somatostatin-14 (at a final concentration of 0.5 nM and 750,000 cpm/mL, at a specific activity of 2000 Ci/mmol, Amersham, Arlington Heights, Ill.) and peptide at a final concentration of from 10^-11 M to 10^-6 M in a solution of 50 mM HEPES (pH 7.4) containing 1% bovine serum albumin (BSA), 5 mM MgCl2, Trasylol (200,000 International Units), bacitracin (0.02 mg/mL) and phenylmethylsulfonylfluoride (0.02 mg/mL) for 25 min at 30° C. Using a filtration manifold, this mixture was filtered through a polyethyleneimine-washed GC/F filter (Whatman, Maidstone, England), and the residue remaining on the filter washed thrice with 5 mL cold HEPES buffer. The filter and a sample of the filter washings were then counted in a gamma counter. To assess non-specific binding, the assay was performed in the presence of unlabeled somatostatin-14 at 200 nM. Data analysis including Hill plots of the data provided inhibition constants (see Bylund & Yamamura, "Methods of receptor binding", in Methods in Neurotransmitter Receptor Analysis, Yamamura et al., eds., Raven Press: New York, 1990).

| Ki [nM] | Structure (SMILES) |
| --- | --- |
| 2 | CC(C)[C@@H]1NC(=O)[C@H](CCCCN)NC(=O)[C@@H](Cc2c[nH]c3ccccc23)NC(=O)[C@H](Cc2ccc(O)cc2)NC(=O)[C@H](Cc2ccccc2)N(C)C(=O)[C@H](CCSCC(=O)NCCCC[C@H](N)C(=O)NCC(=O)N[C@@H](CS)C(N)=O)NC1=O [cyclo.(N-CH3)FYWD KV.Hcy(CH2 CO.(ε-K)GC.amide)] (cyclo([NMeF]Y[dW]KV[hCys](X7))) |
| 0.65 | CC(C)[C@@H]1NC(=O)[C@H](CCCCN)NC(=O)[C@@H](Cc2c[nH]c3ccccc23)NC(=O)[C@H](Cc2ccc(O)cc2)NC(=O)[C@H](Cc2ccccc2)N(C)C(=O)[C@H](CCSCC(=O)N[C@@H](CCCCN)C(=O)NCCCC[C@H](N)C(=O)NCC(=O)N[C@@H](CS)C(N)=O)NC1=O [cyclo.(N-CH3)FYWD KV.Hcy(CH2 CO.K(ε-K)GC.amide)] (cyclo([NMeF]Y[dW]KV[hCys](X11))) |
| 1.5 | CC(C)[C@@H]1NC(=O)[C@H](CCCCN)NC(=O)[C@@H](Cc2c[nH]c3ccccc23)NC(=O)[C@H](Cc2ccc(O)cc2)NC(=O)[C@H](Cc2ccccc2)N(C)C(=O)[C@H](CCSCC(=O)N[C@@H](CS)C(=O)NCC(=O)N[C@@H](CS)C(N)=O)NC1=O [cyclo.(N-CH3)FYWD KV.Hcy(CH2 CO.CGC.amide)] (cyclo([NMeF]Y[dW]KV[hCys](X6))) |
| 2.4 | CC(C)[C@@H]1NC(=O)[C@H](CCCCN)NC(=O)[C@@H](Cc2c[nH]c3ccccc23)NC(=O)[C@H](Cc2ccc(O)cc2)NC(=O)[C@H](Cc2ccccc2)N(C)C(=O)[C@H](CCSCC(=O)NCC(=O)NCC(=O)N[C@@H](CS)C(N)=O)NC1=O [cyclo.(N-CH3)FYWD KV.Hcy(CH2 CO.GGC.amide)] (cyclo([NMeF]Y[dW]KV[hCys](X12))) |
| 1.8 | CC(C)[C@@H]1NC(=O)[C@H](CCCCN)NC(=O)[C@@H](Cc2c[nH]c3ccccc23)NC(=O)[C@H](Cc2ccc(O)cc2)NC(=O)[C@H](Cc2ccccc2)N(C)C(=O)[C@H](CCSCC(=O)N[C@@H](CS)C(=O)NCC(=O)N[C@@H](CS)C(=O)O)NC1=O [cyclo.(N-CH3)FYWD KV.Hcy(CH2 CO.CGC)] (cyclo(KV[hCys](X5)[NMeF]Y[dW])) |
| 0.79 | CC(=O)NCSC[C@H](NC(=O)CNC(=O)[C@H](CSCNC(C)=O)NC(=O)CSCC[C@@H]1NC(=O)[C@H](C(C)C)NC(=O)[C@H](CCCCN)NC(=O)[C@@H](Cc2c[nH]c3ccccc23)NC(=O)[C@H](Cc2ccc(O)cc2)NC(=O)[C@H](Cc2ccccc2)N(C)C1=O)C(N)=O [cyclo.(N-CH3)FYWD KV.Hcy(CH2 CO.CAcm GCAcm.amide)] (cyclo(KV[hCys](X13)[NMeF]Y[dW])) |
